Assay [1] relates to Folr1^−/− embryos. As to conditions: maternal supplementation, dose dependent ("tunable"); cited from earlier work.
Assay [2] concerns neural tube defects (NTDs). As to conditions: periconceptional intake of supplemental folic acid, some populations; cited from earlier work.
Assay [3] has as its system Amt null embryos. As to conditions: maternal supplementation; cited from earlier work.
Assay [4] deals with Mthfd1l^z/z embryos. The note with it: for Crown-rump length: E15.5. The source says: Mice. All protocols used within this study were approved by the Institutional Animal Care and Use Committee of The University of Texas at Austin and conform to the National Institutes of Health Guide for the Care and Use of Laboratory Animals. All mice were maintained on a C57Bl/6 genetic background. Mice harboring a floxed conditional knockout cassette between exons 4 and 6 of Mthfd1l were obtained from the Wellcome Trust Sanger Institute (EUCOMM ID 37226). Mice carrying the floxed Mthfd1l allele were mated to mice expressing Cre recombinase under control of the E2a promoter (E2a-Cre) (Lakso M, et al. (1996) Proc. Natl. Acad. Sci. U.S.A 93:5860-5865) to generate heterozygous Mthfd1l^z/+ embryos lacking exon 5 and the neomycin resistance cassette (FIG. 2A). All mice were given ad libitum access to water and standard mouse chow (LabDiet 5K67).
Maternal Supplementation with Calcium Formate. Mthfd1l^z/+ matings were set up in a cage equipped with a water bottle containing 0.0096M, 0.019M, 0.056M or 0.096M calcium formate. The females had access to the supplemented water at least one day before observation of the plug. These concentrations were calculated to deliver 250, 500, 1500 or 2500 mg calcium formate/kg/day, respectively, based on an average water intake of 5 mL per day for a 25 g C57BL/6 mouse (Green EL ed (1966) Biology of the Laboratory Mouse (Dover Publications, Inc., New York), 2nd Ed, p 706). The effect of formate supplementation was analyzed by a two-tailed T-test for crown-rump length
Pregnant dams were administered calculated doses of 250-2500 mg/kg/day.

In assay [5] the test system is Mthfd1l^z/z embryos. Kind of assay: Maternal supplementation with sodium formate, Mthfd1l^z/+ matings. In kind it is in vivo, mouse. The protocol: Maternal Supplementation with Sodium Formate.
Because deletion of Mthfd1l is expected to result in loss of mitochondrial formate production, experiments were conducted to determine if maternal formate supplementation would improve development of Mthfd1l^z/z embryos. Pregnant dams were given ad libitum access to water containing sodium formate to achieve a calculated dose of 5000 or 7500 mg sodium formate/kg/day; controls were given water without formate. […] When dams were supplemented with 5000 mg/kg/day sodium formate, 4 Mthfd1l^+/+, 14 Mthfd1l^z/+, and 8 Mthfd1l^z/z embryos were obtained from 3 litters between E15.5-18.5. […] Next, the morphology of E10.5-E15.5 embryos from dams supplemented with 7500 mg/kg/day sodium formate was examined, obtaining 10 Mthfd1l^+/+ embryos, 31 Mthfd1l^z/+ embryos and 14 Mthfd1l^z/z embryos from 6 litters, again conforming to the expected Mendelian ratio (p=0.48). […] Importantly, 6 of the 14 Mthfd1l^z/z embryos were dissected from dams at E13.5 or E15.5, whereas no surviving Mthfd1l^z/z embryos were observed after E12.5 from unsupplemented dams. While supplemented versus non-supplemented embryos were not compared after E12.5 due to lethality of the unsupplemented embryos, formate supplementation partially rescued the growth defect in Mthfd1l^z/z embryos (FIGS. 5A, 5B). […] Supplementation had no significant effect on crown-rump length of wild-type embryos (5.9±0.2 mm).

The mark [6] stands for this setting: 250 mg/kg, of 6 Mthfd1l^z/z embryos.
Where [7] appears, read: 250 mg/kg, of 6 Mthfd1l^z/z embryos (Table 2).
The mark [8] stands for this setting: 250 mg/kg, of 6 Mthfd1l^z/z embryos (Table 3).
[9] abbreviates: 500 mg/kg, of 11 Mthfd1l^z/z embryos.
The mark [10] stands for this setting: 500 mg/kg, of 11 Mthfd1l^z/z embryos (Table 2).
Where [11] appears, read: 500 mg/kg, of 11 Mthfd1l^z/z embryos (Table 3).
Setting [12] is: 1500 mg/kg, Mthfd1l^z/z embryos.
Where [13] appears, read: 1500 mg/kg, of 13 Mthfd1l^z/z embryos.
Setting [14] is: 1500 mg/kg, of 13 Mthfd1l^z/z embryos (Table 2).
Where [15] appears, read: 1500 mg/kg, of 13 Mthfd1l^z/z embryos (Table 3).
The mark [16] stands for this setting: 2500 mg/kg, Mthfd1l^z/z embryos.
Setting [17] is: 2500 mg/kg, of 15 Mthfd1l^z/z embryos.
Where [18] appears, read: 2500 mg/kg, of 15 Mthfd1l^z/z embryos (Table 2).
Where [19] appears, read: 2500 mg/kg, of 15 Mthfd1l^z/z embryos (Table 3).
The mark [20] stands for this setting: 3500 mg/kg, Mthfd1l^z/z embryos.
Setting [21] is: 3500 mg/kg, of 10 Mthfd1l^z/z embryos.
The mark [22] stands for this setting: 3500 mg/kg, of 10 Mthfd1l^z/z embryos (Table 2).
The mark [23] stands for this setting: 3500 mg/kg, of 10 Mthfd1l^z/z embryos (Table 3).
The mark [24] stands for this setting: dams 5000 mg/kg/day sodium formate in water, 3 litters, E15.5-18.5, distribution vs Mendelian p=0.50.
Setting [25] is: dams 7500 mg/kg/day sodium formate, 6 litters, E10.5-E15.5, vs Mendelian p=0.48.
Where [26] appears, read: embryos lacking Mthfd1l, maternal supplementation.

Where two headings read alike, the source gives them in different places.

Consider `Nc1nc(=O)c2c([nH]1)NCC(CNc1ccc(C(=O)N[C@@H](CCC(=O)O)C(=O)O)cc1)N2C=O` (mixture of isomers) [5-formyl-THF], for which, in assay [1], the “rescue of Folr1 knockout embryonic folate deficiency” value is listed as “can be rescued”.
`Nc1nc2ncc(CNc3ccc(C(=O)NC(CCC(=O)O)C(=O)O)cc3)nc2c(=O)[nH]1` (stereo in doubt) [folic acid, pteroyl-L-glutamic acid]: in assay [2], the “reduction of the incidence of NTDs” value was no more than 70%. Besides, the “neurulation in Amt null embryos” value in assay [3] was “no effect”.
For `O=C[O-].O=C[O-].[Ca+2]` [calcium formate], the “NTD, phenotype as a percentage” value in assay [4] (250 mg/kg, Mthfd1l^z/z embryos) turned out to be 0.1667 percentage; in assay [4] (500 mg/kg, Mthfd1l^z/z embryos), 0 percentage; in assay [4] (setting [12]), 0.07692 percentage; in assay [4] (setting [16]), 0.3333 percentage; in assay [4] (setting [20]), 0.1 percentage. Besides, the “no defect observed, phenotype as a percentage” value in assay [4] (250 mg/kg, Mthfd1l^z/z embryos) is given as 0 percentage; in assay [4] (500 mg/kg, Mthfd1l^z/z embryos), 0.2727 percentage; in assay [4] (setting [12]), 0.6154 percentage; in assay [4] (setting [16]), 0.6667 percentage; in assay [4] (setting [20]) it was 0.6 percentage. Moreover, the “orofacial defect and NTD, phenotype as a percentage” value in assay [4] (250 mg/kg, Mthfd1l^z/z embryos) was 0.1667 percentage; in assay [4] (500 mg/kg, Mthfd1l^z/z embryos), 0 percentage; in assay [4] (setting [12]) it was 0 percentage; in assay [4] (setting [16]), 0 percentage; in assay [4] (setting [20]), 0 percentage. Further, the “orofacial defect, phenotype as a percentage” value came out at 0.6667 percentage in assay [4] (250 mg/kg, Mthfd1l^z/z embryos); 0.7273 percentage in assay [4] (500 mg/kg, Mthfd1l^z/z embryos); 0.3077 percentage in assay [4] (setting [12]); 0 percentage in assay [4] (setting [16]); 0.3 percentage in assay [4] (setting [20]). The “no defect observed (number of embryos)” value turned out to be 0 in assay [4] (setting [6]); 3 in assay [4] (setting [9]); 8 in assay [4] (setting [13]); 10 in assay [4] (setting [17]); 6 in assay [4] (setting [21]). Further, the “orofacial defect and NTD (number of embryos)” value came out at 1 in assay [4] (setting [6]); 0 in assay [4] (setting [9]); 0 in assay [4] (setting [13]); 0 in assay [4] (setting [17]); 0 in assay [4] (setting [21]). In addition, the “number with NTD” value came out at 2 in assay [4] (setting [7]); 0 in assay [4] (setting [10]); 1 in assay [4] (setting [14]); 5 in assay [4] (setting [18]); 1 in assay [4] (setting [22]). For the same compound, the “number with facial defect” value in assay [4] (setting [7]) stood at 4; in assay [4] (setting [10]) it was 8; in assay [4] (setting [14]), 4; in assay [4] (setting [18]), 0; in assay [4] (setting [22]), 3. In addition, the “NTD (number of embryos)” value in assay [4] (setting [8]) was 1; in assay [4] (setting [11]), 0; in assay [4] (setting [15]), 1; in assay [4] (setting [19]), 5; in assay [4] (setting [23]) it was 1. Moreover, the “orofacial defect (number of embryos)” value in assay [4] (setting [8]) is 4; in assay [4] (setting [11]), 8; in assay [4] (setting [15]) it was 4; in assay [4] (setting [19]), 0; in assay [4] (setting [23]) it was 3. Moreover, the “growth of Mthfd1l^z/z embryos with increasing maternal intake” value in assay [4] (250-2500 mg/kg/day, embryos dissected at E15.5) is given as “dose-response effect”. In addition, the Crown-rump length was 1.39 + 0.1 cm in assay [4] (Mthfd1l^+/+ embryos, 250 mg/kg calcium formate to dams); 1.32 + 0.17 cm in assay [4] (Mthfd1l^+/+ embryos, 500 mg/kg calcium formate to dams); 1.46 + 0.2 cm in assay [4] (Mthfd1l^+/+ embryos, 1500 mg/kg calcium formate to dams); 1.43 + 0.07 cm in assay [4] (Mthfd1l^+/+ embryos, 2500 mg/kg calcium formate to dams); 1.34 + 0.2 cm in assay [4] (Mthfd1l^+/+ embryos, 3500 mg/kg calcium formate to dams); 1.38 + 0.1 cm in assay [4] (Mthfd1l^z/+ embryos, 250 mg/kg calcium formate to dams). In addition, the Crown-rump length in assay [4] (Mthfd1l^z/+ embryos, 500 mg/kg calcium formate to dams) is given as 1.36 + 0.21 cm; in assay [4] (Mthfd1l^z/+ embryos, 1500 mg/kg calcium formate to dams), 1.46 + 0.1 cm; in assay [4] (Mthfd1l^z/+ embryos, 2500 mg/kg calcium formate to dams), 1.39 + 0.09 cm; in assay [4] (Mthfd1l^z/+ embryos, 3500 mg/kg calcium formate to dams), 1.33 + 0.1 cm; in assay [4] (Mthfd1l^z/z embryos, 250 mg/kg calcium formate to dams) it was 1.05 ± 0.1 cm; in assay [4] (Mthfd1l^z/z embryos, 500 mg/kg calcium formate to dams), 1.03 ± 0.06 cm. Besides, the Crown-rump length worked out at 1.17 ± 0.13 cm in assay [4] (Mthfd1l^z/z embryos, 1500 mg/kg calcium formate to dams); 1.20 ± 0.04 cm in assay [4] (Mthfd1l^z/z embryos, 2500 mg/kg calcium formate to dams); 1.1 ± 0.2 cm in assay [4] (Mthfd1l^z/z embryos, 3500 mg/kg calcium formate to dams). Besides, the “NTD and orofacial defect phenotypes” value in assay [4] (Table 3 and FIG. 6, mouse model) was “improves NTD and orofacial defect phenotypes in a dose-dependent manner”.
`CSCC[C@H](N)C(=O)O` [methionine]: the “neurulation in Amt null embryos” value in assay [3] is “significantly improves neurulation”.
Take `O=C[O-].[Na+]` [sodium formate]: the “growth of embryos (words, FIG. 5)” value in assay [5] (7500 mg sodium formate/kg/day, Mthfd1l^z/z embryos at E11.5 vs unsupplemented dams) was “improved growth”. The “number of Mthfd1l^z/z embryos with exencephaly” value in assay [5] (7500 mg/kg/day sodium formate, of 14 Mthfd1l^z/z embryos) is 3. In addition, the “number of Mthfd1l^z/z embryos dissected at E13.5 or E15.5 (survival past E12.5)” value in assay [5] (7500 mg/kg/day sodium formate, of 14 Mthfd1l^z/z embryos, none survive after E12.5 unsupplemented) stood at 6. For the same compound, the “number of Mthfd1l^z/z embryos with normal neural tube closure” value in assay [5] (7500 mg/kg/day sodium formate, of 14 Mthfd1l^z/z embryos, p=0.028 vs unsupplemented nulls) came out at 11. In assay [5] (setting [24]), the “number of Mthfd1l^+/+ embryos obtained” value came out at 4 and the “number of Mthfd1l^z/+ embryos obtained” value was 14. Also, in assay [5] (dams 5000 mg/kg/day sodium formate in water, 3 litters, E15.5-18.5, distribution vs Mendelian p=0.50, 0 from unsupplemented dams), the “number of Mthfd1l^z/z embryos obtained” value was determined as 8. Besides, in assay [5] (setting [25]), the “number of Mthfd1l^+/+ embryos obtained” value was found to be 10, the “number of Mthfd1l^z/+ embryos obtained” value was determined as 31 and the “number of Mthfd1l^z/z embryos obtained” value turned out to be 14. In assay [5] (setting [26]), the “growth defect” value is “partially rescue the growth defect” and the “incidence of NTDs” value is “decrease the incidence of NTDs”. In assay [5] (formate supplemented Mthfd1l^z/z E11.5 embryos, p<0.01 vs unsupplemented (3.6±0.3)), the Crown-rump length is 5.0±0.1 mm. The same compound returned a Crown-rump length in assay [5] (wild-type embryos, supplementation had no significant effect) of 5.9±0.2 mm.

Source of the values: patent US9895328B2, “Calcium formate as a supplement to prevent neural tube defects” (BOARD OF REGENTS, THE UNIVERSITY OF TEXAS SYSTEM, priority 2013, dated 2018).
